Laboratory results: the NIST ThermoML archive (doi:10.1016/j.fluid.2004.12.013)
Numbers after ± are expanded uncertainties.

Test: excess molar enthalpy (molar enthalpy of mixing); xn = mol fraction of the nth substance listed
Conditions: 298.15 K, 101.3 kPa, Liquid

CCCCCCCCC [nonane] + CCCCCO
Conditions | excess molar enthalpy [kJ/mol]
x2 = 0.0545 | 0.414 ± 0.017
x2 = 0.0997 | 0.516 ± 0.02
x2 = 0.1605 | 0.59 ± 0.023
x2 = 0.2245 | 0.648 ± 0.025
x2 = 0.2862 | 0.681 ± 0.026
x2 = 0.3535 | 0.694 ± 0.026
x2 = 0.4025 | 0.689 ± 0.026
x2 = 0.4455 | 0.687 ± 0.026
x2 = 0.4998 | 0.67 ± 0.026
x2 = 0.5489 | 0.637 ± 0.024
x2 = 0.6006 | 0.593 ± 0.023
x2 = 0.6527 | 0.541 ± 0.021
x2 = 0.7058 | 0.469 ± 0.019
x2 = 0.7524 | 0.41 ± 0.017
x2 = 0.7962 | 0.33 ± 0.014
x2 = 0.8478 | 0.257 ± 0.011
x2 = 0.8935 | 0.172 ± 0.008
x2 = 0.9382 | 0.086 ± 0.006

CCCCCCCCC [nonane] + COC(C)(C)C
Conditions | excess molar enthalpy [kJ/mol]
x2 = 0.0816 | 0.131 ± 0.007
x2 = 0.1472 | 0.225 ± 0.01
x2 = 0.1747 | 0.265 ± 0.012
x2 = 0.2383 | 0.345 ± 0.014
x2 = 0.2404 | 0.345 ± 0.014
x2 = 0.3312 | 0.428 ± 0.017
x2 = 0.3912 | 0.457 ± 0.018
x2 = 0.4867 | 0.486 ± 0.019
x2 = 0.6601 | 0.437 ± 0.018
x2 = 0.7157 | 0.392 ± 0.016
x2 = 0.7399 | 0.371 ± 0.015
x2 = 0.7773 | 0.337 ± 0.014
x2 = 0.8129 | 0.305 ± 0.013
x2 = 0.8723 | 0.231 ± 0.01
x2 = 0.895 | 0.2 ± 0.009
x2 = 0.9235 | 0.173 ± 0.008
x2 = 0.9285 | 0.141 ± 0.007
x2 = 0.9459 | 0.126 ± 0.007
x2 = 0.9573 | 0.104 ± 0.006
x2 = 0.9632 | 0.082 ± 0.006
